Results on 23 compounds are retold here after patent US10562893B2, “Benzimidazoles derivatives as Tec kinases family inhibitors” (GB005, Inc., priority 2015, dated 2020).

SMILES strings stand for the structures. Some results are limits rather than exact numbers.

The subject of one assay is Human PBMCs. Briefly: CD3/CD28 mediated PBMC proliferation assay. The settings on record: proliferation of human PBMCs stimulated with anti-CD3 and anti-CD28, 72 hours, Cell Titer-Glo. Format: cell-based. How it is done: Inhibition of cellular ITK was assessed by measuring proliferation of PBMCs following stimulation with anti-CD3 and anti-CD28 antibodies. Individual wells of 96 well tissue culture plates were coated with 50 μL of 5 μg/mL anti-CD3 (OKT3, eBiosciences) for 2 hours at 37° C. Human PBMCs (Stemcell Technologies catalog #70025.3) were plated in 96-well plates at a final concentration of 9.2×10e5 cells/mL in complete media (RPMI, 10% heat inactivated FBS, 55 uM β-mercaptoethanol) and pre-treated with compound curves for 30 minutes at 37° C., 5% CO2. Pre-treated cells plus compounds were transferred to washed anti-CD3 coated plates. Soluble anti-CD28 (CD28.2 eBiosciences) was added to each well at a final concentration of 2 μg/mL. The cells were placed in a humidified 37° C. incubator with 5% CO2 for 72 hours and metabolic viability was measured by quantification of ATP levels with Cell Titer-Glo (Promega catalog # G9242). Controls included unstimulated cells and vehicle alone. EC50 values (50% proliferation in the presence of compound as compared to vehicle treated controls) were calculated from dose response compound curves using GraphPad Prism Software.
On the technique in general: In ATP-based viability assays light output follows the ATP content of the culture.

For assay [1], the system named is Jurkat human acute T cell leukemia cells. Briefly: Jurkat IL-2 release assay. The assay is classed as cell-based. The settings on record: IL-2 release from Jurkat cells stimulated with anti-CD3 and anti-CD28, 48 hours, ELISA. How it is done: Inhibition of cellular ITK was assessed by measuring release of IL-2 following stimulation with anti-CD3 and anti-CD28 antibodies. Individual wells of 96 well tissue culture plates were coated with 50 μL of 10 μg/mL anti-CD3 (OKT3, eBiosciences) for 2 hours at 37° C. Jurkat human acute T cell leukemia cells (ATCC) were plated in 96-well plates at a final concentration of 9.2×10e5 cells/mL in complete media (RPMI, 10% FBS, 1.5 g/L sodium bicarbonate, 10 mM Hepes, 1 mM sodium pyruvate, 4.5 g/L glucose) and pre-treated with compound curves for 30 minutes at 37° C., 5% CO2. Pre-treated cells plus compounds were transferred to washed anti-CD3 coated plates. Soluble anti-CD28 (CD28.2 eBiosciences) was added to each well at a final concentration of 1 μg/mL. The cells were placed in a humidified 37° C. incubator with 5% CO2 for 48 hours and IL-2 release was measured using a commercial ELISA (BD Bioscience catalog #555190). Controls included unstimulated cells and vehicle alone. EC50 values (50% IL-2 release in the presence of compound as compared to vehicle treated controls) were calculated from dose response compound curves using GraphPad Prism Software.

For a further assay, the target named is ITK (Homo sapiens (Human), UniProt Q08881). Kind of assay: ITK kinase inhibition assay. The assay is classed as biochemical. The settings on record: micro-fluidic detection, 3 hours at 25° C. How it is done:
(§1) The in vitro kinase assays were performed at Nanosyn utilizing micro-fluidic detection technology. The test compounds were serially pre-diluted in DMSO and added, by the acoustic dispensing (Labcyte® 550), directly to 384 well assay plates into 10 uL of a buffer with enzyme comprising: 100 mM HEPES, pH7.5, 5 mM MgCl2, 0.1% bovine serum albumin, 1 mM DTT, 0.01% Triton X-100 and the enzyme. Final DMSO concentration was maintained at 1% in all samples, including the controls. The reactions were initiated by addition of ATP (to the specified concentration) and the fluorescently labeled peptide substrate to a final concentration of 1 uM, and incubated for 3 hours at 25° C. Following incubation, the reactions were quenched by addition of 40 μL of termination buffer (100 mM HEPES, pH7.5, 0.01% Triton X-100, 50 mM EDTA). Terminated plates were analyzed using Caliper LabChip® 3000 microfluidic electrophoresis instrument (Caliper Life Sciences/Perkin Elmer). The enzymatic modification of the peptide substrate (phosphorylation) results in a change of net charge enabling electrophoretic separation of product from substrate. As substrate and product are separated by electrophoresis, two peaks of fluorescence are observed. Change in the relative fluorescence intensity of the substrate and product peaks was the parameter measured, reflecting enzyme activity. In the presence of inhibitor, the ratio between product and substrate is altered: signal of the product decreases, while the signal of the substrate increases. Activity in each test sample was determined as the product to sum ratio (PSR):P/(S+P), where P is the peak height of the product and S is the peak height of the FAM-cAMP substrate. For each compound, enzyme activity was measured at 12 concentrations spaced by 3× dilution intervals. Negative control samples (0%-inhibition in the absence of inhibitor, DMSO only) and positive control samples (100%-inhibition, in the absence of enzyme or in the presence of control inhibitor) were assembled in replicates of four and were used to calculate %-inhibition values in the presence of compounds. Percent inhibition (Pinh) was determined using the following equation: Pinh=(PSR0%−PSRinh)/(PSR0%−PSR100%)*100, where PSRinh is the product sum ratio in the presence of inhibitor, PSR0% is the product sum ratio in the absence of inhibitor and PSR100% is the product sum ratio in 100%-inhibition control samples. To determine IC50 values, the inhibition curves (Pinh versus inhibitor concentration) were fitted by 4 parameter sigmoid dose-response model using XLfit software (IDBS).

Another assay concerns the target RLK/TXK (Homo sapiens (Human), UniProt P42681). Kind of assay: RLK/TXK kinase inhibition assay. Format: biochemical. The settings on record: micro-fluidic detection, 3 hours at 25° C. How it is done:
as §1, with “384well” for “384 well”, “(PSR): P/(S+P),” for “(PSR):P/(S+P),”

Chain of RLK/TXK (P42681 whole entry): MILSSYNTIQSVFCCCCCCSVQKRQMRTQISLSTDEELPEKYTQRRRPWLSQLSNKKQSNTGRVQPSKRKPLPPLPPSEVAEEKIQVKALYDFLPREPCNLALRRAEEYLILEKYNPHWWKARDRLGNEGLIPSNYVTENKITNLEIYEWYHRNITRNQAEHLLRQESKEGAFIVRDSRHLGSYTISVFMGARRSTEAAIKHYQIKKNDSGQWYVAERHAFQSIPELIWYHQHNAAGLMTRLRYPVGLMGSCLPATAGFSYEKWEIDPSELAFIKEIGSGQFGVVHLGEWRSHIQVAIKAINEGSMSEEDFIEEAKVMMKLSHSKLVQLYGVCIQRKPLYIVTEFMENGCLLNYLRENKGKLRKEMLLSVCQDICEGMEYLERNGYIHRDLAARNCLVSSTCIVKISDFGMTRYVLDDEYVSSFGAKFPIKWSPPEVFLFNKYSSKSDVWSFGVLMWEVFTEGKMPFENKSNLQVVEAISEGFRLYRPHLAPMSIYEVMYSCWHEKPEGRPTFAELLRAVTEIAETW
Chain of ITK (Q08881 whole entry): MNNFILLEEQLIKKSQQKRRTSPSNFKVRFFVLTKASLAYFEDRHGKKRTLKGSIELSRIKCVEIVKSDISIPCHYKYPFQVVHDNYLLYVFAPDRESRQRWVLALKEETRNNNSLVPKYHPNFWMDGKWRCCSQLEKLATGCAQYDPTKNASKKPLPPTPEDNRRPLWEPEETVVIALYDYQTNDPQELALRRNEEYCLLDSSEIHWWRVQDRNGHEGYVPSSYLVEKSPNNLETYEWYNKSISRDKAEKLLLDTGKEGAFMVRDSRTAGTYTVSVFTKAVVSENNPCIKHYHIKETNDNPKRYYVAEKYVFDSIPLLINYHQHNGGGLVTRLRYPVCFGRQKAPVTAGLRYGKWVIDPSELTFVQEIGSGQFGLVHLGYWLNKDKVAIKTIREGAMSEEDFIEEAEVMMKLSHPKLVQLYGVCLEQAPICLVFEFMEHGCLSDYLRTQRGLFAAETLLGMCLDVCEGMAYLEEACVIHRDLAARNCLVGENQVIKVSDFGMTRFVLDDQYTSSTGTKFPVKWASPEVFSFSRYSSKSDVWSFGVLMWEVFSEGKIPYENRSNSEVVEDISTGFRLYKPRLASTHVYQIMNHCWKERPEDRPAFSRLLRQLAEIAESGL

`C=CC(=O)N[C@H]1C[C@@H](n2c(NC(=O)c3ccc(C(F)F)s3)nc3cc(CN[C@@H](C)C(C)(C)C)ccc32)C1` [Compound 1]: the EC50 (commonly the midpoint of the concentration-response curve) with Human PBMCs is 10 to 100 nM; in assay [1], 10 to 100 nM; at ITK, under 10 nM; at RLK/TXK, 10 to 100 nM.

For the compound `C=CC(=O)Nc1cccc(-n2c(NC(=O)c3ccc(C(F)F)s3)nc3cc(CNCC(C)(C)CO)ccc32)c1` [Compound 29], the half-maximal effective concentration (EC50) (in the assay on Human PBMCs; in assay [1]) was under 10 nM in each case.

Turning to `C=CC(=O)Nc1cccc(-n2c(NC(=O)c3ccc(C(F)F)s3)nc3cc(CN[C@H](C)C(C)(C)C)ccc32)c1` [Compound 30], the EC50 in the assay on Human PBMCs was under 10 nM; in assay [1], 10 to 100 nM.

On to `C=CC(=O)Nc1cccc(-n2c(NC(=O)c3ccc(C(F)F)s3)nc3cc(CN4CCCC4)ccc32)c1` [Compound 32], for which the half-maximal effective concentration (EC50) (with Human PBMCs; in assay [1]) was under 10 nM throughout.

Consider `C=CC(=O)Nc1ccc(F)c(-n2c(NC(=O)c3ccc(C(F)F)s3)nc3cc(CN[C@@H](C)C(C)(C)C)ccc32)c1` [Compound 33], for which the EC50 (with Human PBMCs; in assay [1]) was under 10 nM each time.

On to `C=CC(=O)Nc1cc(-n2c(NC(=O)c3ccc(C(F)F)s3)nc3cc(CN[C@@H](C)C(C)(C)C)ccc32)ccc1F` [Compound 34], for which the concentration giving a half-maximal response (EC50) (in the assay with Human PBMCs; in assay [1]) was over 100 nM throughout.

In the case of `C=CC(=O)Nc1cccc(-n2c(NC(=O)c3ccc(C(F)F)s3)nc3cc(CN[C@H]4CC[C@@H](O)CC4)ccc32)c1` [Compound 35], the values for the concentration for a half-maximal effect (EC50) (in the assay on Human PBMCs; in assay [1]) were under 10 nM and 10 to 100 nM, respectively.

On to `C=CC(=O)Nc1cccc(-n2c(NC(=O)c3ccc(C(F)F)s3)nc3cc(CN(C(C)=O)[C@@H](C)C(C)(C)C)ccc32)c1` [Compound 36], for which the EC50 (in the assay with Human PBMCs; in assay [1]) was 10 to 100 nM each time.

Regarding `C=CC(=O)Nc1cccc(-n2c(NC(=O)c3ccc(OCc4ccccc4)cc3)nc3cc(CN[C@@H](C)C(C)(C)C)ccc32)c1` [Compound 37], the EC50 (in the assay with Human PBMCs; in assay [1]) was over 100 nM throughout.

As to `C=CC(=O)Nc1cccc(-n2c(NC(=O)c3ccc(C(F)F)s3)nc3cc(CNCCCO)ccc32)c1` [Compound 39], the values for the EC50 (with Human PBMCs; in assay [1]) were under 10 nM and 10 to 100 nM, respectively.

As for `C=CC(=O)Nc1cccc(-n2c(NC(=O)c3ccc(C(F)F)s3)nc3cc(CNCC)ccc32)c1` [Compound 40], the half-maximal effective concentration (EC50) was under 10 nM with Human PBMCs and 10 to 100 nM in assay [1].

In the case of `C=CC(=O)Nc1cccc(-n2c(NC(=O)c3cncnc3)nc3cc(CN[C@@H](C)C(C)(C)C)ccc32)c1` [Compound 41], the EC50 in the assay with Human PBMCs is 10 to 100 nM; in assay [1], under 10 nM.

With `C=CC(=O)N[C@H]1CC[C@@H](n2c(NC(=O)c3ccc(C#N)cc3)nc3cc(CN[C@@H](C)C(C)(C)C)ccc32)CC1` [Compound 54], the half-maximal effective concentration (EC50) (in the assay on Human PBMCs; in assay [1]) was over 100 nM each time.

As to `C=CC(=O)N1CCOc2ccc(-n3c(NC(=O)c4ccc(C(F)F)s4)nc4cc(CN[C@@H](C)C(C)(C)C)ccc43)cc21` [Compound 57], the EC50 (with Human PBMCs; in assay [1]) was 10 to 100 nM in each case.

Regarding `C=CC(=O)Nc1cccc(-n2c(NC(=O)c3ccc(C(F)F)s3)nc3cc(CN4CCN(CCO)CC4)ccc32)c1` [Compound 59], the EC50 (with Human PBMCs; in assay [1]) was under 10 nM in each case.

On to `C=CC(=O)N[C@H]1CC[C@@H](n2c(NC(=O)c3ccns3)nc3cc(CN[C@@H](C)C(C)(C)C)ccc32)CC1` [Compound 67], for which the EC50 is over 100 nM with Human PBMCs and 10 to 100 nM in assay [1].

In the case of `C=CC(=O)N[C@H]1CCC[C@@H](n2c(NC(=O)c3ccc(C(F)F)s3)nc3cc(CN[C@@H](C)C(C)(C)C)ccc32)C1` [Compound 68], the 50% effective concentration (EC50) in the assay on Human PBMCs, on ITK and at RLK/TXK was under 10 nM throughout.

As for `CC#CC(=O)Nc1cccc(-n2c(NC(=O)c3ccc(C(F)F)s3)nc3cc(CN[C@@H](C)C(C)(C)C)ccc32)c1` [Compound 72], the figures for the 50% effective concentration (EC50) (with Human PBMCs; in assay [1]) were over 100 nM and 10 to 100 nM, respectively.

Regarding `C=CC(=O)Nc1cccc(-n2c(NC(=O)c3ccns3)nc3cc(CN4CCOCC4)ccc32)c1` [Compound 73], the values for the half-maximal effective concentration (EC50) (in the assay with Human PBMCs; in assay [1]) were 10 to 100 nM and under 10 nM, respectively.

For the compound `C=CC(=O)Nc1cccc(-n2c(NC(=O)c3ccno3)nc3cc(CN4CCOCC4)ccc32)c1` [Compound 76], the half-maximal effective concentration (EC50) is 10 to 100 nM in the assay with Human PBMCs and under 10 nM in assay [1].

With `C[C@H](NCc1ccc2c(c1)nc(NC(=O)c1ccc(C(F)F)s1)n2-c1cccc(NC(=O)/C=C/CN(C)C)c1)C(C)(C)C` [Compound 78], the values for the EC50 (with Human PBMCs; in assay [1]) were over 100 nM and 10 to 100 nM, respectively.

Turning to `C=CC(=O)Nc1cccc(-n2c(NC(=O)c3ccc(C(F)F)s3)nc3cc(N(C)S(C)(=O)=O)ccc32)c1` [Compound 80], the 50% effective concentration (EC50) (with Human PBMCs; in assay [1]) was 10 to 100 nM throughout.

Consider `C=C(F)C(=O)Nc1cccc(-n2c(NC(=O)c3ccc(C(F)F)s3)nc3cc(CN[C@@H](C)C(C)(C)C)ccc32)c1` [Compound 84], for which the EC50 (in the assay with Human PBMCs; in assay [1]) was 10 to 100 nM each time.
